According to article PMC12042267, “Expanding the Family of Monosubstituted 15-Membered Pyridine-Based Macrocyclic Ligands for Mn(II) Complexation in the Context of MRI” (Inorganic Chemistry, 2025):

Legend:
[1] = Water solubility of complex samples; type: physicochemical; conditions: at the concentrations required for the measurements
From the text: MnL2 and MnL3 complex samples for kinetic and relaxometric studies have been prepared by mixing MnCl2 and L2 or L3 solutions of known concentrations in a 1:1.05 ratio and by adjusting the pH to 7.4. Mn(II) concentration in each sample was verified by bulk magnetic susceptibility measurements.

[2] = Simultaneous analysis of 17O NMR and 1H NMRD data (Solomon-Bloembergen-Morgan); type: physicochemical
Method: ^1H NMRD profiles on aqueous solutions of MnL2 (cMn2+ = 0.98 mM; pH = 7.22) and MnL3 (cMn2+ = 0.96 mM; pH = 7.20) were recorded at 25 and 37 °C on a SMARTracer Fast Field Cycling NMR relaxometer (Stelar; 0.00024–0.24 T, 0.01–10 MHz ^1H Larmor frequency) and a WP80 NMR electromagnet adapted to variable-field measurements (Bruker; 0.47–1.88 T, 20–80 MHz ^1H Larmor frequency). The temperature was maintained by a gas flow and monitored by a VTC91 temperature control unit based on previous calibration with a Pt resistance temperature probe.
Variable-temperature ^17O NMR measurements of aqueous solutions of MnL2 (cMnL = 3.70 mmol·kg^–1, pH = 7.03) and MnL3 (cMnL = 3.72 mmol·kg^–1, pH = 7.2) were performed on a Bruker Avance III 400 MHz spectrometer (9.4 T, 54.2 MHz) in the temperature range 5–75 °C. The temperature was calculated after calibration with ethylene glycol and […]. Acidified water (HClO4, pH = 3.3) was used as a diamagnetic reference. The ^17O transverse relaxation times (T2) were obtained by using the CPMG spin–echo technique. To eliminate susceptibility contributions to the chemical shift, the sample was in a glass sphere placed in a 10 mm NMR tube. To improve the sensitivity, ^17O-enriched water (11.10% H2^17O, Cortecnet) was added to the solution to yield approximately 1% ^17O enrichment.
The ^17O NMR and NMRD data have been analyzed according to the Solomon–Bloembergen–Morgan theory of paramagnetic relaxation.[3] The least-squares fit was performed using Visualizeur/Optimiseur running on a MATLAB 8.3.0 (R2014a) platform.
^1H NMRD profiles were recorded at 25 and 37 °C in the magnetic field range 0.01–80 MHz (Figure 6, bottom). The reduced transverse ^17O relaxation rates were simultaneously fitted with ^1H NMRD data according to the Solomon–Bloembergen–Morgan theory (equations are given in SI). The fitted parameters are summarized in Table 6 and compared to those for seven-coordinate Mn(II) complexes of L1 and 15-pyN3O2 ligands, as well as of [Mn(H2O)6]^2+.
The shape of the ^1H NMRD curves reflects typical low-molecular-weight complexes. The profiles display one dispersion between 1 and 10 MHz as has been previously described for other complexes except [Mn(H2O)6]^2+.[49],[50] The hydration number of MnL2 and MnL3 was assumed in both cases to be q = 1 for a total coordination number of CN = 7, based on the X-ray crystal structure. In aqueous solution, the chloride or the acetonitrile that coordinates to Mn(II) in the solid state will be replaced by one water molecule to complete the coordination sphere of Mn(II). As it was described by Gale et al.,[51] the ^17O T2 values can also give an estimate of hydration number, provided the 1/T2r vs temperature curve has a maximum. This approach is not applicable for MnL2 and MnL3 since both systems are in the slow exchange regime in the entire temperature range studied. The lack of a fast exchange regime prevents the fit of the scalar coupling constant, A0/ℏ, as well which was therefore fixed to 38.6 MHz.[28]

water solubility [1] | ErH (activation energy for the rotational motion) [2] | ΔH^‡ (activation enthalpy for the water exchange) [2] | ΔS^‡ (activation entropy for the water exchange) [2] | Δ^2 (trace of the square of the transient ZFS tensor) [2] | τrH^298 (rotational correlation time) [2] | τv^298 (correlation time for modulation of ZFS) [2] | SMILES | kex^298 (water exchange rate constant) [2] | kex^298 (water exchange rate) [2]
water-soluble | 15.0 ± 0.5 kJ mol^–1 | 28.7 ± 1.36 kJ mol^–1 | –21 ± 5 J mol^–1K^–1 | 164 ± 10 10^18 s^–2 | 35 ± 4 ps | 8 ± 1 ps | O.[Mn+2].c1ccc(CN2CCOCCOCCNCc3cccc(n3)C2)nc1 [MnL2] | 0.46 × 10^7 s^–1 | 0.46 ± 0.02 10^7 s^–1
water-soluble | 15.0 ± 0.5 kJ mol^–1 | 28.5 ± 2.5 kJ mol^–1 | –27 ± 7 J mol^–1K^–1 | 100 ± 10 10^18 s^–2 | 45 ± 2 ps | 13 ± 3 ps | O.[Mn+2].c1cc2nc(c1)CN(Cc1nc3ccccc3[nH]1)CCOCCOCCNC2 [MnL3] | 0.23 × 10^7 s^–1 | 0.23 ± 0.02 10^7 s^–1
